This is an account of results in US20110183928A1 (BAYER SCHERING PHARMA AKTIENGESELLSCHAFT, priority 2008, published 2011).

Common to all, as to assay type: cell-based
For assay [1], the target named is T1, human mineralocorticoid receptor (MR) (Homo sapiens, UniProt P08235).
T1 construct: expressed in transfected cells; host or cells: CHO K1
T1 sequence (P08235 734-984 limits assumed): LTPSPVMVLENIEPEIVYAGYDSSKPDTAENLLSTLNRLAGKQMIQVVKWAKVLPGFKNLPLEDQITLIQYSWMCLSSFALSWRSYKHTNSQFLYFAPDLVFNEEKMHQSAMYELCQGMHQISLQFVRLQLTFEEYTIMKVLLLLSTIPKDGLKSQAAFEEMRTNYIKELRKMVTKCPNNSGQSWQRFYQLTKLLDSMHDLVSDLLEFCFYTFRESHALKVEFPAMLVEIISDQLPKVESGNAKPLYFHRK
Description: Cellular in vitro assay, GAL4-MR chimera luciferase reporter in CHO K1 cells (inhibitory MR activity). As to conditions: GAL4-MR ligand-binding domain chimera, agonist aldosterone. From the text:
(§1) 1. Cellular In Vitro Assay to Determine the Inhibitory MR Activity and MR Selectivity Compared with Other Steroid Hormone Receptors
(§2) Antagonists of the human mineralocorticoid receptor (MR) are identified, and the efficacy of the compounds described herein is quantified with the aid of a recombinant cell line. The cell is originally derived from a hamster ovary epithelial cell (Chinese Hamster Ovary, CHO K1, ATCC: American Type Culture Collection, VA 20108, USA).
(§3) An established chimera system in which the ligand-binding domains of human steroid hormone receptors are fused to the DNA-binding domain of the yeast transcription factor GAL4 is used in this CHO K1 cell line. The GAL4-steroid hormone receptor chimeras produced in this way are cotransfected and stably expressed with a reporter construct in the CHO cells.
(§4) To generate the GAL4-steroid hormone receptor chimeras, the GAL4 DNA-binding domain (amino acids 1-147) from the vector pFC2-dbd (from Stratagene) is cloned with the PCR-amplified ligand-binding domains of the mineralocorticoid receptor (MR, amino acids 734-985), of the glucocorticoid receptor (GR, amino acids 443-777), of the progesterone receptor (PR, amino acids 680-933) and of the androgen receptor (AR, amino acids 667-919) into the vector pIRES2 (from Clontech). The reporter construct, which contains five copies of the GAL4 binding site upstream of a thymidine kinase promoter, leads to expression of firefly luciferase (Photinus pyralis) after activation and binding of the GAL4-steroid hormone receptor chimeras by the respective specific agonists aldosterone (MR), dexamethasone (GR), progesterone (PR) and dihydrotestosterone (AR).
(§5) The MR, GR, PR and AR cells are plated out in medium (Optimem, 2.5% FCS, 2 mM glutamine, 10 mM HEPES) in 96-well (or 384- or 1536-well) microtiter plates the day before the assay, and are kept in a cell incubator (96% air humidity, 5% v/v CO2, 37° C.). On the day of the assay, the substances to be tested are taken up in the abovementioned medium and added to the cells. About 10 to 30 minutes after addition of the test substances, the respective specific agonists of the steroid hormone receptors are added. After a further incubation time of 5 to 6 hours, the luciferase activity is measured with the aid of a video camera. The relative light units measured as a function of the substance concentration give a sigmoidal stimulation curve. The IC50 values are calculated with the aid of the computer program GraphPad PRISM (Version 3.02).
(In general: In a reporter assay the amount or activity of a reporter protein is the signal.)

The target in assay [2] is T2, glucocorticoid receptor (GR) (Homo sapiens, UniProt P04150).
T2 construct: of the glucocorticoid receptor (GR, amino acids 443-777); expressed in transfected cells; host or cells: CHO K1
T2 sequence (P04150 443-777): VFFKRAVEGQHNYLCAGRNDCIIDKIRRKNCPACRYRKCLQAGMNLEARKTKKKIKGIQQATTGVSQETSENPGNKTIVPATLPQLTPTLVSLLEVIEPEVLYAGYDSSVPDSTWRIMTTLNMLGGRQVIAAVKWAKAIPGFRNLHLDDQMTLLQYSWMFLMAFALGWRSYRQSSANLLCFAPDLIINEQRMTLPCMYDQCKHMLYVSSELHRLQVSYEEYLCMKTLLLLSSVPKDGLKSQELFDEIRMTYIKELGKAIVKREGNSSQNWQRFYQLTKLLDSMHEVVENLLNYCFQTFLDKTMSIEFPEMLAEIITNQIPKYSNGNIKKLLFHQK
Kind of assay: Cellular in vitro assay, GAL4-GR chimera luciferase reporter in CHO K1 cells (selectivity). As to conditions: GAL4-GR ligand-binding domain chimera, agonist dexamethasone.
Description: as §1, §2, §3, §4, §5

The target in a further assay is T3, androgen receptor (AR) (Homo sapiens, UniProt P10275).
T3 construct: of the androgen receptor (AR, amino acids 667-919); expressed in transfected cells; host or cells: CHO K1
T3 sequence (P10275 667-919): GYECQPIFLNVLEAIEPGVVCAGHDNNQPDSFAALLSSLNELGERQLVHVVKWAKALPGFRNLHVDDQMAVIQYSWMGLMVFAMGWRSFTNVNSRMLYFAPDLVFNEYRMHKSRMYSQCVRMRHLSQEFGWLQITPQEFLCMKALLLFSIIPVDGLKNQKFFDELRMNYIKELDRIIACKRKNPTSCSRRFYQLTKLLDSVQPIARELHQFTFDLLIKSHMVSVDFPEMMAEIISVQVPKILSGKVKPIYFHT
Description: Cellular in vitro assay, GAL4-AR chimera luciferase reporter in CHO K1 cells (selectivity). As to conditions: GAL4-AR ligand-binding domain chimera, agonist dihydrotestosterone.
Description: as §1, §2, §3, §4, §5

Assay [3] has as its target T4, progesterone receptor (PR) (Homo sapiens, UniProt P06401).
T4 construct: of the progesterone receptor (PR, amino acids 680-933); expressed in transfected cells; host or cells: CHO K1
T4 sequence (P06401 680-933): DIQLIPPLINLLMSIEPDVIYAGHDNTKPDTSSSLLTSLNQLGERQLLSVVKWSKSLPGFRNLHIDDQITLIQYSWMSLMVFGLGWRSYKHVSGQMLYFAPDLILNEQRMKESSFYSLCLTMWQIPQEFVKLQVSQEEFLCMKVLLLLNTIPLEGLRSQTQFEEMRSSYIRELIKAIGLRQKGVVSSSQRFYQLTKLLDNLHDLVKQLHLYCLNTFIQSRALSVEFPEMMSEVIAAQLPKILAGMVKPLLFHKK
Kind of assay: Cellular in vitro assay, GAL4-PR chimera luciferase reporter in CHO K1 cells (selectivity). As to conditions: GAL4-PR ligand-binding domain chimera, agonist progesterone.
Description: as §1, §2, §3, §4, §5

In general, IC50 refers to the concentration at which inhibition is half-maximal. A higher IC50 goes with weaker potency. Regarding `CCc1cccc2c(C(CCCO)c3ccc(C(F)(F)F)cc3)c[nH]c12` (single isomer, unassigned) [Example 3-1, 4-(7-Ethyl-1H-indol-3-yl)-4-[4-(trifluoromethyl)phenyl]butan-1-ol], the concentration for half-maximal inhibition (IC50) in assay [1] is 0.42 µM; in assay [2], 6.47 µM; at androgen receptor (AR) it was 3.65 µM; in assay [3], 5.87 µM.

As to `CCc1cccc2c(C(CCCC#N)c3ccc(C(F)(F)F)cc3)c[nH]c12` (single isomer, unassigned) [Example 4-1, 5-(7-Ethyl-1H-indol-3-yl)-5-[4-(trifluoromethyl)phenyl]pentanenitrile], the half-maximal inhibitory concentration (IC50) in assay [1] is 0.14 µM; in assay [2], 2.34 µM; at androgen receptor (AR), 2 µM; in assay [3], 1.74 µM.

Take `CS(=O)(=O)Nc1cccc2c(C(CCO)c3ccc(C(F)(F)F)cc3)c[nH]c12` (stereo not shown) [Example 16, N-(3-{3-Hydroxy-1-[4-(trifluoromethyl)phenyl]propyl}-1H-indol-7-yl)methanesulfonamide]: the IC50 in assay [1] was 0.33 µM; in assay [2], 0.7 µM.

On to `Cc1cccc2c(C(CCCC#N)c3ccc(C(F)(F)F)cc3)c[nH]c12` (single isomer, unassigned) [Example 8-1, 5-(7-Methyl-1H-indol-3-yl)-5-[4-(trifluoromethyl)phenyl]pentanenitrile], for which the half-inhibitory concentration (IC50) came out at 0.2 µM in assay [1], 5.1 µM in assay [2], 1.53 µM on androgen receptor (AR) and 2.71 µM in assay [3].

`CS(=O)(=O)Nc1cccc2c(C(CCC#N)c3ccc(C(F)(F)F)cc3)c[nH]c12` (single isomer, unassigned) [Example 17-1]: the half-maximal inhibitory concentration (IC50) in assay [1] was 0.02 µM; in assay [2], 2.21 µM; on androgen receptor (AR), 2.27 µM; in assay [3], 4.5 µM.

Consider `CCc1cccc2c(C(CCC#N)c3ccc4ccccc4c3)c[nH]c12` (stereo not shown) [Example 34], for which the IC50 in assay [1] is 0.09 µM; in assay [2], 0.39 µM; at androgen receptor (AR), 4.2 µM; in assay [3] it was 3.35 µM.
